“Also recorded” adds a separate entry of the source.
Legend:
[1] = test system: Primary peritoneal macrophages; experiment: LPS-induced HMGB1 secretion in primary peritoneal macrophages (Western blotting); assay type: cell-based, murine; settings: crude LPS, 16 h, extracellular HMGB1
Protocol: FIG. 2A-2C. […] AU, arbitrary units. *, P<0.05 versus “+LPS alone.”
Primary murine macrophages and human monocytes were employed to investigate the mechanisms underlying the regulation of HMGB1 secretion by various inflammatory stimuli. Primary peritoneal macrophages were isolated from Balb/C mice (male, 7-8 weeks, 20-25 grams) at 2-3 days after intraperitoneal injection of 2 ml thioglycollate broth (4%, Difco, Detroit, Mich.) as previously described (23,78). Human peripheral blood mononuclear cells (HuPBMCs) were isolated from human blood purchased from the New York (Long Island) Blood Bank (Melville, N.Y.) by density gradient centrifugation through Ficoll (Ficoll-Paque PLUS, Pharmacia, Piscataway, N.J.) as previously described (23,78,79). At 80-90% confluence, macrophage/monocyte cultures will be stimulated with divergent stimuli: ultrapure and crude LPS, CIRP 14, SAA (PeproTech, Cat. No. 300-13) at different concentrations and for various time periods (0, 6, 12, and 18 h). The expression levels of Cx43 or Panx1 hemichannel proteins in macrophage/monocyte cultures are determined by Western blotting or immunocytochemistry techniques as previously described (21,23,80).

[2] = test system: macrophage hemichannel activities; experiment: Lucifer Yellow uptake in LPS-stimulated macrophages; assay type: cell-based
PKR = experiment: LPS-induced PKR expression and phosphorylation (Western blotting); assay type: cell-based, murine; settings: crude LPS, 16 h, primary macrophages
[3] = in vivo; cited from earlier work
Panx1 hemichannels = Panx1 hemichannels (Homo sapiens, UniProt Q96RD7); settings: cited from earlier work
Panx1 hemichannels, sequence (Q96RD7 whole entry): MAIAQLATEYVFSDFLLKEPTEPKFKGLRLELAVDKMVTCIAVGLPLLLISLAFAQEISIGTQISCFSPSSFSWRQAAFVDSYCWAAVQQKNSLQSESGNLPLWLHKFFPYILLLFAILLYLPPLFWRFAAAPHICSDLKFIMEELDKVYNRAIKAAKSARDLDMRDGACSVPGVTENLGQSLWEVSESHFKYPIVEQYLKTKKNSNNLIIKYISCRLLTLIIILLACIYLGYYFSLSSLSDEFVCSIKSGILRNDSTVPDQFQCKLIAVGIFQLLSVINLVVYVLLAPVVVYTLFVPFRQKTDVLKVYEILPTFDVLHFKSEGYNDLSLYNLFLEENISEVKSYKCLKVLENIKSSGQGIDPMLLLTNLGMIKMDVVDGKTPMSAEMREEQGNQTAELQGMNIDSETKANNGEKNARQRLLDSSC

Cx43 gap junctions = Cx43 gap junctions (Homo sapiens, UniProt P17302); settings: cited from earlier work
Cx43 gap junctions, sequence (P17302 whole entry): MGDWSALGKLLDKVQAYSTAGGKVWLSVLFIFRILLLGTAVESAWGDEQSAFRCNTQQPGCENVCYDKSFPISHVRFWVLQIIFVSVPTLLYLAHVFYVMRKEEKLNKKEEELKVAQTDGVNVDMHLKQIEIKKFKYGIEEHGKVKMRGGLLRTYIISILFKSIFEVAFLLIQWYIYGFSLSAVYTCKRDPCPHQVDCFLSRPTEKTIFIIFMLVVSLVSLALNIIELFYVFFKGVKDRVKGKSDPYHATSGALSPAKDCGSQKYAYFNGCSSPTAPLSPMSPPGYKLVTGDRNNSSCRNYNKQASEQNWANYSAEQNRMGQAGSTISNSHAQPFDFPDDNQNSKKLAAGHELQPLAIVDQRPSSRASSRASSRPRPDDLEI

Cx43 hemichannel = Cx43 hemichannel (Homo sapiens, UniProt P17302); settings: ATP release or dye uptake; cited from earlier work
Cx43 hemichannel, sequence (P17302 whole entry): as above

Panx1 hemichannel = Panx1 hemichannel (Homo sapiens, UniProt Q96RD7); settings: cited from earlier work
Panx1 hemichannel, sequence (Q96RD7 whole entry): as the sequence (Q96RD7 whole entry) above

[4] = test system: Primary peritoneal macrophages; settings: reference 49; cited from earlier work
[5] = test system: Primary peritoneal macrophages; experiment: LPS-induced NO production in primary peritoneal macrophages (Griess reaction); assay type: cell-based, murine; settings: crude LPS, 16 h
[6] = test system: connexin 43-gated hemichannel activities; experiment: Lucifer Yellow dye uptake in LPS-stimulated RAW 264.7 cells; assay type: cell-based; settings: LPS 16 h, LY 1 mg/ml 15 min
Protocol: FIG. 8. […] The Lucifer Yellow dye uptake was used to measure the connexin 43-gated hemichannel activities. […] Subsequently, cell cultures were incubated with Lucifer Yellow (LY, 1 mg/ml) for 15 min, and fixed with 2% paraformaldehyde following three extensive washes with 1× PBS. The number of cells with diffused fluorescent signals was counted under a fluorescence microscope. The cells containing punctuate fluorescent signals were excluded, as the punctuate signals likely resulted from phagocytosis (rather than passive diffusion through Cx43 hemichannels) of the LY dye.
The Lucifer Yellow dye uptake was used to measure the connexin 43-gated hemichannel activities. […] Subsequently, cell cultures were incubated with Lucifer Yellow (LY, 1 mg/ml) for 15 min, and fixed with 2% paraformaldehyde following three extensive washes with 1×PBS. The number of cells with diffused fluorescent signals was counted under a fluorescence microscope. The cells containing punctuate fluorescent signals were excluded, as the punctuate signals likely resulted from phagocytosis (rather than passive diffusion through Cx43 hemichannels) of the LY dye. […] Animal survival was assessed for up to two weeks, and the Kaplan-Meier method was used to compare the differences in mortality rates between groups. […]

C57BL/6 mice = experiment: Hepatic ischemia/reperfusion injury, serum ALT and AST; assay type: in vivo; settings: 10.0 mg/kg BW via internal jugular vein at beginning of reperfusion; 24 h
Protocol: FIG. 10. Intravenous administration of Cx43 peptide antagonist conferred protection against hepatic ischemia/reperfusion (I/R) injury. Male C57BL/6 mice (20-25 g) were subjected to hepatic ischemia/reperfusion by temporally clamping the hepatic artery and portal vein for 60 minutes, which typically produced ischemia in 70% of the liver. At the beginning of the reperfusion, 0.2 ml saline, P5 (ENVCYD; 10.0 mg/kg BW) or P5A (ENVSYD (SEQ ID NO:14); 10.0 mg/kg BW) was injected via the internal jugular vein. At 24 h after the onset of ischemia, animals were euthanized to harvest blood to measure serum levels of hepatic injury markers such as alanine aminotransferase (ALT) and aspartate aminotransferase (AST) using commercial kits.
Intravenous administration of Cx43 peptide antagonist conferred protection against hepatic ischemia/reperfusion (I/R) injury. Male C57BL/6 mice (20-25 g) were subjected to hepatic ischemia/reperfusion by temporally clamping the hepatic artery and portal vein for 60 minutes, which typically produced ischemia in 70% of the liver. At the beginning of the reperfusion, 0.2 ml saline, P5 (ENVCYD, 10.0 mg/kg BW) or P5A (ENVSYD (SEQ ID NO:14), 10.0 mg/kg) was injected via the internal jugular vein. […]

Compound: Nc1ncnc2c1ncn2[C@@H](C=O)O[C@@H](C=O)COP(=O)(O)OP(=O)(O)OP(=O)(O)O [oATP]
- LPS-induced HMGB1 secretion [1]: similarly inhibited
- LPS-induced LY-uptake ([2]; data not shown): similarly inhibited
- LPS-induced elevation of PKR expression and phosphorylation (PKR): significantly attenuated

Compound: CC1(C)[C@@H](O[C@H]2O[C@H](C(=O)O)[C@@H](O)[C@H](O)[C@H]2O[C@@H]2O[C@H](C(=O)O)[C@@H](O)[C@H](O)[C@H]2O)CC[C@]2(C)[C@H]3C(=O)C=C4[C@@H]5C[C@@](C)(C(=O)O)CC[C@]5(C)CC[C@@]4(C)[C@]3(C)CC[C@@H]12 [GZA, glycyrrhizic acid]
- benefit in animal models of hepatitis, hepatic ischemia/reperfusion, toxin-induced liver injury, endotoxemia, colitis [3]: proven beneficial

Compound: CCCN(CCC)S(=O)(=O)c1ccc(C(=O)O)cc1 [probenecid]
- specificity for Panx1 (over Cx43) (Panx1 hemichannels): more specific inhibitor

Compound: Gap19: mimetic peptide KQIEIKKFK (SEQ ID NO:19), intracellular loop of Cx43 (HOMO SAPIENS)
- Cx43 gap junction communication (Cx43 gap junctions): without affecting
- Panx1 channel activity (Panx1 hemichannels): without affecting
- Cx43 hemichannel activities (Cx43 hemichannel): specifically inhibits

Compound: CC1(C)[C@@H](OC(=O)CCC(=O)O)CC[C@]2(C)[C@H]3C(=O)C=C4[C@@H]5C[C@@](C)(C(=O)O)CC[C@]5(C)CC[C@@]4(C)[C@]3(C)CC[C@@H]12 [CBX, carbenoxolone]
- EC50 (Cx43 gap junctions): 50 to 100 µM
- LPS-induced HMGB1 secretion [1]: effectively suppressed; also recorded: dose-dependently abrogated; also recorded: remarkably inhibited
- EC50 (Panx1 hemichannels): 1 to 4 µM
- Panx1 hemichannel-mediated ATP release (Panx1 hemichannel; CBX 10 μM, hypoxia, sheer stress, low oxygen tension): effectively inhibited
- ATP release from apoptotic cells (Panx1 hemichannel; CBX >100 μM): uniformly attenuated
- number of LY-positive cells ([2]; prolonged LPS stimulation, quiescent approximately 2%, LPS alone ~16%): 6-8%
- concentrations of CBX used to abrogate LPS-induced HMGB1 secretion in macrophages [4]: 5 to 10 µM
- LPS (endotoxin)-induced NO production [5]: effectively suppressed; also recorded: remarkably inhibited
- LPS-induced elevation of PKR expression and phosphorylation (PKR): dose-dependently abrogated; also recorded: significantly attenuated

Compound: 10Panx: Panx1-specific mimetic inhibitory peptide, residues 74 to 83 of SEQ ID NO:16 (WRQAAFVDSY; HOMO SAPIENS)
- P2X7R-induced Panx1 hemichannel activation (Panx1 hemichannels): selectively attenuate

Compound: P5: peptide ENVCYD (SEQ ID NO:1), Cx43 peptide antagonist from extracellular loop 1 (listed as Homo Sapiens)
- bacterial endotoxin-induced Lucifer Yellow dye uptake [6]: significantly inhibited
- protection against hepatic I/R injury (serum ALT, AST) (C57BL/6 mice): significant protection
